Legend:
Conditions in all cases: CellTiter Glo, 120 hours incubation
[1] = system: NCI-H358 (KRAS G12C mutation); assay: Proliferation inhibition measured by CTG, NCI-H358; format: cell-based, human
Procedure: (§1) NCI-H358 is a human non-small cell lung cancer cell line with KRAS G12C mutation; AGS is a gastric cancer cell line with KRAS G12D mutation; SW480 is a colon cancer cell lines with KRAS G12V mutation; A375 is a wild type malignant melanoma cell line. The proliferation inhibitory effect of the compounds on various mutations was evaluated by determining the proliferation inhibitory activity of the compounds on these cell lines.
(§2) The assay was conducted on either 384-well plates or 96-well plates. The procedures are as follows:
(§3) The cell suspensions were added to 384- or 96-well plates (384-well plate: 40 μL; 96-well plate: 100 μL) except for peripheral wells. The plates were incubated in a carbon dioxide incubator overnight. Prepared compounds (10 concentration gradients by serial 3-fold dilution) were added to the wells. The cell plates were incubated in a carbon dioxide incubator for 120 hours. CellTiter Glo reagent (384 well plate: 25 μL; 96 well plate: 100 μL) was added to the 384- or 96-well plates. The plates were shaken for 10 minutes away from light, and incubated for 10 minutes. The plates were read by EnVision system. Inhibition curves were plotted using XLFit and IC50 values were calculated. “IC50>10 μM” is denoted by “*”, “10 μM≥IC50>1 μM” is denoted by […] is denoted by “***”, “---” means no data.

[2] = system: SW480 (colon cancer cell lines with KRAS G12V mutation); assay: Proliferation inhibition measured by CTG, SW480; format: cell-based
Procedure: as §1, §2, §3

[3] = system: AGS (gastric cancer cell line with KRAS G12D mutation); assay: Proliferation inhibition measured by CTG, AGS; format: cell-based
Procedure: as §1, §2, §3

[4] = system: A375 (wild type malignant melanoma cell line); assay: Proliferation inhibition measured by CTG, A375; format: cell-based
Procedure: as §1, §2, §3

Compound	IC50 ([1]; Homo sapiens, NCI-H358, 120 h)	IC50 [2]	IC50 [3]	IC50 ([4]; Homo sapiens, A-375, 120 h)	IC50 [1]	IC50 [4]	IC50 ([3]; 120 h)	IC50 ([2]; Homo sapiens, SW480, 120 h)
CC1Cc2cncc(F)c2CN1c1nc(OC[C@@H]2CCCN2C)nc2c1CCN(c1cccc3cccc(Cl)c13)C2 (single isomer, unassigned) [Compound 4-1]	1 to 10 µM	1 to 10 µM	≤ 1 µM	1 to 10 µM				
CC1Cc2cncc(F)c2CN1c1nc(OC[C@@H]2CCCN2C)nc2c1CCN(c1cccc3cccc(Cl)c13)C2 (single isomer, unassigned) [Compound 4-2]		≤ 1 µM	≤ 1 µM		≤ 1 µM	≤ 1 µM		
CC1Cc2cncc(F)c2CN1c1nc(OC[C@@H]2CCCN2C)nc2c1CO[C@H](c1cccc3cccc(Cl)c13)C2 (single isomer, unassigned) [Compound 11-1]			1 to 10 µM		1 to 10 µM	1 to 10 µM		
CC1Cc2cncc(F)c2CN1c1nc(OC[C@@H]2CCCN2C)nc2c1CO[C@H](c1cccc3cccc(Cl)c13)C2 (single isomer, unassigned) [Compound 11-2]			≤ 1 µM		1 to 10 µM	1 to 10 µM		
CN1CCC[C@H]1COc1nc2c(c(N3CCc4cnccc4C3)n1)CCN(c1cccc3cccc(Cl)c13)C2 [Compound 1]	≤ 1 µM			≤ 1 µM				
COc1cc2c(cn1)CCN(c1nc(OC[C@@H]3CCCN3C)nc3c1CCN(c1cccc4cccc(Cl)c14)C3)C2 [Compound 2]	1 to 10 µM			1 to 10 µM			1 to 10 µM	
CC1Cc2cnccc2CN1c1nc(OC[C@@H]2CCCN2C)nc2c1CCN(c1cccc3cccc(Cl)c13)C2 (some centres unmarked) [Compound 3-1]	1 to 10 µM			1 to 10 µM			1 to 10 µM	1 to 10 µM
CC1Cc2cnccc2CN1c1nc(OC[C@@H]2CCCN2C)nc2c1CCN(c1cccc3cccc(Cl)c13)C2 (some centres unmarked) [Compound 3-2]		≤ 1 µM	≤ 1 µM		≤ 1 µM	≤ 1 µM		
CC1Cc2cnccc2CN1c1nc(OC[C@@H]2CCCN2C)nc2c1CCN(c1cccc3cccc(Cl)c13)C2 (some centres unmarked) [Compound 3]		≤ 1 µM	≤ 1 µM		≤ 1 µM	≤ 1 µM		
CC1Cc2cncc(F)c2CN1c1nc(OC[C@@H]2CCCN2C)nc2c1CCN(c1cccc3cccc(Cl)c13)C2 (some centres unmarked) [Compound 4]							≤ 1 µM	≤ 1 µM
CC1Cc2cncc(F)c2CN1c1nc(OC[C@@H]2CCCN2C)nc2c1CCN(c1cc(O)cc3cccc(Cl)c13)C2 (some centres unmarked) [Compound 5-1]	≤ 1 µM			≤ 1 µM				
CC1Cc2cncc(F)c2CN1c1nc(OC[C@@H]2CCCN2C)nc2c1CCN(c1cc(O)cc3cccc(Cl)c13)C2 (some centres unmarked) [Compound 5-2]					≤ 1 µM	≤ 1 µM		
CC1Cc2cncc(F)c2CN1c1nc(OC[C@@H]2CCCN2C)nc2c1CCN(c1cc(O)cc3cccc(Cl)c13)C2 (some centres unmarked) [Compound 5]							≤ 1 µM	≤ 1 µM
CC1Cc2cnccc2CN1c1nc(OC[C@@H]2CCCN2C)nc2c1CCN(c1cc(O)cc3cccc(Cl)c13)C2 (some centres unmarked) [Compound 6]							≤ 1 µM	≤ 1 µM
C#Cc1c(F)ccc2cc(O)cc(N3CCc4c(nc(OC[C@@H]5CCCN5C)nc4N4Cc5c(F)cncc5CC4C)C3)c12 (some centres unmarked) [Compound 7]	1 to 10 µM			1 to 10 µM			≤ 1 µM	1 to 10 µM
CC1Cc2cncc(F)c2CN1c1nc(OC[C@@H]2CCCCN2C)nc2c1CCN(c1cccc3cccc(Cl)c13)C2 (some centres unmarked) [Compound 9-1]	≤ 1 µM			≤ 1 µM			≤ 1 µM	≤ 1 µM
CC1Cc2cncc(F)c2CN1c1nc(OC[C@@H]2CCCCN2C)nc2c1CCN(c1cccc3cccc(Cl)c13)C2 (some centres unmarked) [Compound 9-2]		≤ 1 µM	≤ 1 µM		≤ 1 µM	≤ 1 µM		

Compound	IC50 ([1]; Homo sapiens, NCI-H358, 120 h)	IC50 [2]	IC50 [3]	IC50 ([4]; Homo sapiens, A-375, 120 h)	IC50 [1]	IC50 [4]	IC50 ([3]; 120 h)	IC50 ([2]; Homo sapiens, SW480, 120 h)
CC1Cc2cncc(F)c2CN1c1nc(OC[C@@H]2CCCN2C)nc2c1CO[C@H](c1cccc3cccc(Cl)c13)C2 (some centres unmarked) [Compound 11]	1 to 10 µM			1 to 10 µM			≤ 1 µM	
C[C@H]1Cc2cncc(F)c2CN1c1nc(OC[C@@H]2CCCCN2C)nc2c1CCN(c1cccc3cccc(F)c13)C2 [Compound 12]	≤ 1 µM			≤ 1 µM			≤ 1 µM	≤ 1 µM
C[C@H]1Cc2cncc(F)c2CN1c1nc(OC[C@@H]2CCCN2C)nc2c1CCN(c1cncc3ccccc13)C2 [Compound 13]	1 to 10 µM			> 10 µM			1 to 10 µM	1 to 10 µM
C[C@H]1Cc2cncc(F)c2CN1c1nc(OC[C@@H]2CCCN2C)nc2c1CCN(c1cccc3ncccc13)C2 [Compound 14]	1 to 10 µM			1 to 10 µM			1 to 10 µM	1 to 10 µM
C[C@H]1Cc2cncc(F)c2CN1c1nc(OC[C@@H]2CCCN2C)nc2c1CCN(c1cccc3cccc(F)c13)C2 [Compound 15]	≤ 1 µM			1 to 10 µM			≤ 1 µM	≤ 1 µM
C[C@H]1Cc2cncc(F)c2CN1c1nc(OC[C@@H]2CCCN2C)nc2c1CCN(c1ccnc3ccccc13)C2 [Compound 16]	1 to 10 µM			1 to 10 µM			1 to 10 µM	1 to 10 µM
C[C@H]1Cc2cncc(F)c2CN1c1nc(OC[C@@H]2CCCN2C)nc2c1CCN(c1cccc3cccnc13)C2 [Compound 17]	≤ 1 µM			1 to 10 µM			≤ 1 µM	≤ 1 µM
C[C@H]1Cc2cncc(F)c2CN1c1nc(OC[C@@H]2CCCN2C)nc2c1CCN(c1cccc3ccncc13)C2 [Compound 18]	1 to 10 µM			1 to 10 µM			1 to 10 µM	1 to 10 µM
C[C@H]1Cc2cncc(F)c2CN1c1nc(OC[C@@H]2CCCN2C)nc2c1CCN(c1cccc3cnccc13)C2 [Compound 19]	1 to 10 µM			> 10 µM			1 to 10 µM	1 to 10 µM
C[C@H]1Cc2cncc(F)c2CN1c1nc(OC[C@@H]2CCCN2C)nc2cc(-c3cccc4cccc(Cl)c34)ccc12 [Compound 20]	1 to 10 µM			1 to 10 µM			≤ 1 µM	≤ 1 µM
C[C@H]1Cc2cncc(F)c2CN1c1nc(OC[C@@H]2CCCN2C)nc2cc(-c3cccc4cccc(F)c34)ccc12 [Compound 21]	1 to 10 µM			1 to 10 µM			≤ 1 µM	1 to 10 µM
C[C@H]1Cc2cncc(F)c2CN1c1nc(OC[C@H]2CCCN2C)nc2c1CCN(c1cccc3cccc(F)c13)C2 [Compound 22]	≤ 1 µM			1 to 10 µM			≤ 1 µM	≤ 1 µM
C[C@H]1Cc2cncc(F)c2CN1c1nc(OC[C@H]2CCCCN2C)nc2c1CCN(c1cccc3cccc(F)c13)C2 [Compound 23]	1 to 10 µM			1 to 10 µM			≤ 1 µM	1 to 10 µM
C[C@H]1Cc2cncc(F)c2CN1c1nc(OC[C@H]2COCCN2C)nc2c1CCN(c1cccc3cccc(F)c13)C2 [Compound 24]	1 to 10 µM			> 10 µM			1 to 10 µM	1 to 10 µM
C[C@@H]1Cc2cncc(F)c2CN1c1nc(OC[C@@H]2CCCN2C)nc2c1CCN(c1cncc3cccc(Cl)c13)C2 [Compound 34]				≤ 1 µM			≤ 1 µM	
C[C@@H]1Cc2cncc(F)c2CN1c1nc(OC[C@@H]2CCCN2C)nc2c1CCN(c1cccc3cccc(F)c13)C2 [Compound 35]				≤ 1 µM			≤ 1 µM	
C[C@@H]1Cc2cncc(F)c2CN1c1nc(OC[C@@H]2CCCCN2C)nc2c(F)c(-c3cccc4cccc(F)c34)ncc12 [Compound 36]							≤ 1 µM	
